Read-outs that look alike come from different tables or passages of the source. One block for each molecule: values may come before it.
Target: T1, human p38 kinase alpha (Homo sapiens, UniProt Q16539)
T1 construct: GST (N, cleaved yes); made in house; host or cells: E. coli DH10B
Experiment: p38 kinase in vitro assay, phosphorylation of biotinylated PHAS-I with 32P-ATP
Assay type: biochemical
Settings: for inhibition at 1 µM: read-out: P38 alpha kinase % inhib @ conc.
Method: The coding region of the human p38a cDNA was obtained by PCR-amplification from RNA isolated from the human monocyte cell line THP.1. […] Random primer, dNTP's and Superscript™ reagents were all purchased from Life-Technologies, Gaithersburg, Mass. The reaction was incubated at 42° C. for 1 hour. Amplification of p38 cDNA was performed by aliquoting 5 μl of the reverse transcriptase reaction into a 100 μl PCR reaction containing the following: 80 μl dH2O, 2 μl 50 mM DNTP's, 1 μl each of forward and reverse primers (50 pmol/μl), 10 μl of 10×buffer and 1 μl Expand™ polymerase (Boehringer Mannheim). The PCR primers incorporated BamHI sites onto the 5′ and 3′ end of the amplified fragment, and were purchased from Genosys. […] The PCR amplification was carried out in a DNA Thermal Cycler (Perkin Elmer) by repeating 30 cycles of 94° C. for 1 minute, 60° C. for 1 minute and 68° C. for 2 minutes. After amplification, excess primers and unincorporated dNTP's were removed from the amplified fragment with a Wizard™ PCR prep (Promega) and digested with BamHI (New England Biolabs). The BamHI digested fragment was ligated into BamHI digested PGEX 2T plasmid DNA (PharmaciaBiotech) using T-4 DNA ligase (New England Biolabs) as described by T. Maniatis, Molecular Cloning: A Laboratory Manual, 2nd ed. […] The ligation reaction was transformed into chemically competent E. coli DH10B cells purchased from Life-Technologies following the manufacturer's instructions. Plasmid DNA was isolated from the resulting bacterial colonies using a Promega Wizard™ miniprep kit.
Expression of Human p38a:
Overnight cultures were grown in-Luria Broth (LB) containing […] ampicillin. The next day, 500 ml of fresh LB was inoculated with 10 ml of overnight culture, and grown in a 2 liter flask at 37° C. with constant shaking until the culture reached an absorbance of 0.8 at 600 nm. Expression of the fusion protein was induced by addition of isopropyl b-D-thiogalactosidse (IPTG) to a final concentration of 0.05 mM. The cultures were shaken for three hours at room temperature, and the cells were harvested by centrifugation. The cell pellets were stored frozen until protein purification.
Purification of p38 Kinase-α:
All chemicals were from Sigma Chemical Co. unless noted. Twenty grams of E. coli cell pellet collected from five 1 L shake flask fermentations was resuspended in a volume of PBS (140 mM NaCl, 2.7 mM KCl, 10 mM Na2HPO4, 1.8 mM KH2PO4, pH 7.3) up to 200 ml. The cell suspension was adjusted to 5 mM DTT with 2 M DTT and then split equally into five 50 ml Falcon conical tubes. The cells were sonnicated (Ultrasonics model W375) with a 1 cm probe for 3×1 minutes (pulsed) on ice. Lysed cell material was removed by centrifugation (12,000×g, 15 minutes) and the clarified supernatant applied to glutathione-sepharose resin (Pharmacia).
Glutathione-sepharose Affinity Chromatography:
The resin was collected by centrifugation (600×g, 5 min) and washed with 2×150 ml PBS/1% Triton X-100, followed by 4×40 ml PBS. To cleave the p38 kinase from the GST-p38 fusion protein, the glutathione-sepharose resin was resuspended in 6 ml PBS containing 250 units thrombin protease (Pharmacia, specific activity>7500 units/mg) and mixed gently for 4 hours at room temperature. The glutathione-sepharose resin was removed by centrifugation (600×g, 5 min) and washed 2×6 ml with PBS. The PBS wash fractions and digest supernatant containing p38 kinase protein were pooled and adjusted to 0.3 mM PMSF.
Mono O Anion Exchange Chromatography:
The thrombin-cleaved p38 kinase was further purified by FPLC-anion exchange chromatography.

[1] = in vitro P38-alpha kinase, read-out: P38 alpha kinase IC50
[2] = in vitro P38-alpha kinase inhibition, read-out: P38 alpha kinase IC50

T1 sequence (Q16539 whole entry): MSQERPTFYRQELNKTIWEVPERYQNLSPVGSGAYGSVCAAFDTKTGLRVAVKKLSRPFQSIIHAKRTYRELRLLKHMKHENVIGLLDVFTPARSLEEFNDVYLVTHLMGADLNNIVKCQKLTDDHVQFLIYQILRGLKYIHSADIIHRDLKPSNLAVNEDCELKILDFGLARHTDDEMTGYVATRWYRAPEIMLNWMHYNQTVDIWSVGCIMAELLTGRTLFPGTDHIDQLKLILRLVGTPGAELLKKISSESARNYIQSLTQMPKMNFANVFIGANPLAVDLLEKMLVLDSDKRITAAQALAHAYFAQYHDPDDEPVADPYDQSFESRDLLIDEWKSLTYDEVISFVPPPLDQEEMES

IC50 [1]: 2110 nM
SMILES: CCCCNC(=O)Cn1nc(-c2ccc(F)cc2)c(-c2ccncc2)c1C [Example B-2293]

IC50 [2]: 730 nM
SMILES: CCc1ccc(S(=O)(=O)NCCc2[nH]nc(-c3ccc(F)cc3)c2-c2ccncc2)cc1 [Example B-1088]

IC50 [1]: 90 nM
SMILES: CC(C)OC(=O)N1CCC(c2[nH]nc(-c3ccc(F)cc3)c2-c2ccncc2)CC1 [Example B-1425]

IC50 [2]: 65 nM
SMILES: CC(NS(=O)(=O)c1ccccc1Br)c1[nH]nc(-c2ccc(F)cc2)c1-c1ccncc1 (stereo not shown) [Example B-0631]

P38 alpha kinase % inhib @ conc. (uM) (@ 1.0 uM): 93.0% @
SMILES: CCS(=O)(=O)NCCc1[nH]nc(-c2ccc(F)cc2)c1-c1ccncc1 [Example B-1023]

IC50 [2]: 1960 nM
SMILES: CC(NC(=O)c1cccc(Cl)c1Cl)c1[nH]nc(-c2ccc(F)cc2)c1-c1ccncc1 (stereo not shown) [Example B-0681]

inhibition at 1 µM (@ 1.0 uM): 65%
SMILES: CCCCOc1ccc(C(=O)NCc2[nH]nc(-c3ccc(F)cc3)c2-c2ccncc2)cc1 [Example B-0041]

IC50 [1]: 180 nM
SMILES: COC(=O)CCNC(=O)Cn1nc(-c2ccc(F)cc2)c(-c2ccncc2)c1C [Example B-2301]

IC50 [1]: 300 nM
SMILES: O=S(=O)(c1cccs1)N1CCC(c2[nH]nc(-c3ccc(F)cc3)c2-c2ccncc2)CC1 [Example B-1437]

IC50 [1]: 5880 nM
SMILES: Cc1c(-c2ccncc2)c(-c2ccc(F)cc2)nn1CC(=O)NCCCSC1CCCCC1 [Example B-2306]

P38 alpha kinase % inhib @ conc. (uM) (@ 1.0 uM): 77.0% @
SMILES: CC(C)S(=O)(=O)NCCc1[nH]nc(-c2ccc(F)cc2)c1-c1ccncc1 [Example B-1015]

IC50 [1]: < 100 nM
SMILES: C#CCOC(=O)N1CCC(c2[nH]nc(-c3ccc(F)cc3)c2-c2ccncc2)CC1 [Example B-1427]

inhibition at 1 µM (@ 1.0 uM): 94%
SMILES: O=C(NCc1[nH]nc(-c2ccc(F)cc2)c1-c1ccncc1)c1ccccc1[N+](=O)[O-] [Example B-0024]

P38 alpha kinase % inhib @ conc. (@ 10.0 uM): 75.0% @
SMILES: COC(=O)C(Cc1ccc([N+](=O)[O-])cc1)NC(=O)Cn1nc(-c2ccc(F)cc2)c(-c2ccncc2)c1C (stereo not shown) [Example B-2349]

P38 alpha kinase % inhib @ conc. (uM) (@ 10.0 uM): 56.0% @
SMILES: COc1cc(NC(=O)NCCc2[nH]nc(-c3ccc(F)cc3)c2-c2ccncc2)cc(OC)c1OC [Example B-0979]

IC50 [1]: 1700 nM
SMILES: O=S(=O)(c1ccc(-c2ccccn2)s1)N1CCC(c2[nH]nc(-c3ccc(F)cc3)c2-c2ccncc2)CC1 [Example B-1439]

IC50 [1]: 97 nM
SMILES: O=C(NCCCc1[nH]nc(-c2ccc(F)cc2)c1-c1ccncc1)c1cc(C(F)(F)F)ccc1F [Example B-1335]

IC50 [1]: 1480 nM
SMILES: O=S(=O)(NCCCc1[nH]nc(-c2ccc(F)cc2)c1-c1ccncc1)c1cc(Cl)c(Cl)s1 [Example B-1257]

P38 alpha kinase % inhib @ conc. (@ 1.0 uM): 87.0% @
SMILES: CC(C)(C)C(=O)NCCCc1[nH]nc(-c2ccc(F)cc2)c1-c1ccncc1 [Example B-1229]

P38 alpha kinase % inhib @ conc. (uM) (@ 1.0 uM): 79.0% @
SMILES: CC(C)C(=O)NCCCc1[nH]nc(-c2ccc(F)cc2)c1-c1ccncc1 [Example B-1160]

IC50 [2]: 35 nM
SMILES: COc1ccc(Br)cc1S(=O)(=O)NCCc1[nH]nc(-c2ccc(F)cc2)c1-c1ccncc1 [Example B-1102]

IC50 [2]: 5530 nM
SMILES: CC(=O)OCC(=O)NC(C)c1[nH]nc(-c2ccc(F)cc2)c1-c1ccncc1 (stereo not shown) [Example B-0530]

IC50 [2]: 3410 nM
SMILES: COc1cccc(C(=O)NC(Cc2ccccc2)c2[nH]nc(-c3ccc(F)cc3)c2-c2ccncc2)c1 (stereo not shown) [Example B-0824]

P38 alpha kinase IC50, uM or % inhib @ conc. (uM): % inhib (@ 10.0 uM): 34.0% @
SMILES: CCOC(=O)CN(Cc1ccccn1)C(=O)Cn1nc(-c2ccc(F)cc2)c(-c2ccncc2)c1C [Example B-2390]

IC50 [1]: 2340 nM
SMILES: O=S(=O)(c1ccccc1OC(F)(F)F)N1CCC(c2[nH]nc(-c3ccc(F)cc3)c2-c2ccncc2)CC1 [Example B-1463]

IC50 [2]: 2900 nM
SMILES: O=S(=O)(NC(Cc1ccccc1)c1[nH]nc(-c2ccc(F)cc2)c1-c1ccncc1)c1ccc(F)cc1F (stereo not shown) [Example B-0712]

P38 alpha kinase % inhib @ conc. (uM) (@ 1.0 uM): 61.0% @
SMILES: COc1ccc(S(=O)(=O)NCCc2[nH]nc(-c3ccc(F)cc3)c2-c2ccncc2)cc1 [Example B-1025]

IC50 [2]: 1550 nM
SMILES: O=C(NCCc1[nH]nc(-c2ccc(F)cc2)c1-c1ccncc1)c1cc(F)c(F)cc1F [Example B-1149]

P38 alpha kinase % inhib @ conc. (@ 1.0 uM): 68.0% @
SMILES: Cc1ccc(S(=O)(=O)NCCCc2[nH]nc(-c3ccc(F)cc3)c2-c2ccncc2)cc1 [Example B-1204]

IC50 [2]: 1680 nM
SMILES: O=C(NCCc1[nH]nc(-c2ccc(F)cc2)c1-c1ccncc1)c1ccc(F)c(C(F)(F)F)c1 [Example B-1140]

P38 alpha kinase % inhib @ conc. (uM) (@ 1.0 uM): 55.0% @
SMILES: COCC(=O)NCCc1[nH]nc(-c2ccc(F)cc2)c1-c1ccncc1 [Example B-0994]

IC50 [2]: 880 nM
SMILES: CC(NS(=O)(=O)c1cn(C)cn1)c1[nH]nc(-c2ccc(F)cc2)c1-c1ccncc1 (stereo not shown) [Example B-0663]

IC50 [2]: 2300 nM
SMILES: O=C(NCc1ccccc1)NC(Cc1ccccc1)c1[nH]nc(-c2ccc(F)cc2)c1-c1ccncc1 (stereo not shown) [Example B-0770]

P38 alpha kinase IC50, uM or % inhib @ conc. (uM): % inhib (@ 10.0 uM): 80.0% @
SMILES: Cc1c(-c2ccncc2)c(-c2ccc(F)cc2)nn1CC(=O)Nc1ccccc1SCCCc1ccccc1 [Example B-2460]

P38 alpha kinase % inhib @ conc. (uM) (@ 1.0 uM): 87.0% @
SMILES: O=S(=O)(NCCc1[nH]nc(-c2ccc(F)cc2)c1-c1ccncc1)c1cccs1 [Example B-1026]

P38 alpha kinase IC50, uM or % inhib @ conc. (uM): % inhib (@ 10.0 uM): 77.0% @
SMILES: CCCCNS(=O)(=O)c1cccc(NC(=O)Cn2nc(-c3ccc(F)cc3)c(-c3ccncc3)c2C)c1 [Example B-2440]

P38 alpha kinase % inhib @ conc. (@ 10.0 uM): 38.0% @
SMILES: Cc1c(-c2ccncc2)c(-c2ccc(F)cc2)nn1CC(=O)NC1CCC(C(C)(C)C)CC1 (stereo not shown) [Example B-2350]

P38 alpha kinase % inhib @ conc. (uM) (@ 1.0 uM): 75.0% @
SMILES: CC(C)COC(=O)NCCc1[nH]nc(-c2ccc(F)cc2)c1-c1ccncc1 [Example B-1010]

IC50 [2]: 630 nM
SMILES: O=C(NC(Cc1ccccc1)c1[nH]nc(-c2ccc(F)cc2)c1-c1ccncc1)c1ccno1 (stereo not shown) [Example B-0840]

P38 alpha kinase IC50, uM or % inhib @ conc. (uM): % inhib (@ 10.0 uM): 78.0% @
SMILES: Cc1c(-c2ccncc2)c(-c2ccc(F)cc2)nn1CC(=O)N1CCSC1c1ccco1 (stereo not shown) [Example B-2409]

IC50 [2]: 190 nM
SMILES: CC(NS(=O)(=O)c1ccc2ccccc2c1)c1[nH]nc(-c2ccc(F)cc2)c1-c1ccncc1 (stereo not shown) [Example B-0652]

P38 alpha kinase % inhib @ conc. (@ 1.0 uM): 77.0% @
SMILES: O=S(=O)(NCc1[nH]nc(-c2ccc(F)cc2)c1-c1ccncc1)c1cc(Br)c(Br)s1 [Example B-0136]

IC50 [2]: 220 nM
SMILES: CC(NS(=O)(=O)c1ccc(F)cc1)c1[nH]nc(-c2ccc(F)cc2)c1-c1ccncc1 (stereo not shown) [Example B-0562]

IC50 [2]: < 100 nM
SMILES: COc1ccc(NC(=O)N[C@H](C)c2[nH]nc(-c3ccc(F)cc3)c2-c2ccncc2)c(OC)c1 [Example B-0422]

IC50 (Table 8, 1% DMSO, read-out: p38α Kinase Assay IC50): 21 nM
SMILES: Fc1ccc(-c2[nH]ncc2-c2ccnc(Nc3ccccc3F)n2)cc1 [Example A-325, N-(2-fluorophenyl)-4-[3-(4-fluorophenyl)-1H-pyrazol-4-yl]-2-pyrimidinamine]

P38 alpha kinase % inhib @ conc. (uM) (@ 1.0 uM): 69.0% @
SMILES: CCOC(=O)CCNC(=O)NCCc1[nH]nc(-c2ccc(F)cc2)c1-c1ccncc1 [Example B-0947]

IC50 [1]: 400 nM
SMILES: Cc1c(-c2ccncc2)c(-c2ccc(F)cc2)nn1CC(=O)NCCCN1CCCC1=O [Example B-2280]

IC50 [2]: 76 nM
SMILES: CC(NS(=O)(=O)c1cccc(Cl)c1Cl)c1[nH]nc(-c2ccc(F)cc2)c1-c1ccncc1 (stereo not shown) [Example B-0622]

IC50 [1]: 1610 nM
SMILES: O=S(=O)(c1ccc(Cl)cc1Cl)N1CCC(c2[nH]nc(-c3ccc(F)cc3)c2-c2ccncc2)CC1 [Example B-1449]

IC50 [2]: 24 nM
SMILES: CN(C)S(=O)(=O)NCCc1[nH]nc(-c2ccc(F)cc2)c1-c1ccncc1 [Example B-1115]

IC50 [2]: 10800 nM
SMILES: O=C(NC(Cc1ccccc1)c1[nH]nc(-c2ccc(F)cc2)c1-c1ccncc1)c1ccc(I)cc1 (stereo not shown) [Example B-0807]

P38 alpha kinase % inhib @ conc. (uM) (@ 1.0 uM): 79.0% @
SMILES: O=C(NCCCc1[nH]nc(-c2ccc(F)cc2)c1-c1ccncc1)C1CCCC1 [Example B-1181]

Reference: patent US6979686B1, “Substituted pyrazoles as p38 kinase inhibitors” (Pharmacia Corporation, priority 2001, dated 2005)
